# Measurements taken from ChEMBL document CHEMBL1201862, “PubChem BioAssay data set” (2004).
#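 Five compound concentrations were applied to cells in 96-well plates for 48 hours; endpoints were derived by simple linear interpolation of the resulting dose-response curve. Here, GI50 denotes the concentration required for 50% inhibition of growth.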 The source made the active and inactive calls. Cut-off read from the data, not from the text of the source: active = GI50 up to about 1.1 µM and inactive = higher.
# Key:
# Test in all cases: NCI tumour cell line growth inhibition, 48 h
# DMS-273 = test system: DMS-273
# RXF 631 = test system: RXF 631
# SNB-78 = test system: SNB-78
# DLD-1 = test system: DLD-1
# HOP-18 = test system: HOP-18
# KM-20L2 = test system: KM-20L2
# XF498 = test system: XF498
# DMS-114 = test system: DMS-114
# Hs-578T = test system: Hs-578T
SMILES,GI50 (DMS-273),GI50 (RXF 631),GI50 (SNB-78),GI50 (DLD-1),GI50 (HOP-18),GI50 (KM-20L2),GI50 (XF498),GI50 (DMS-114),GI50 (Hs-578T)
COC1CC(O)C(OC(=O)c2ccccc2)C(C)O1 (stereo unspecified),> 100 µM (inactive),> 100 µM (inactive),> 100 µM (inactive),> 10 µM (inactive),> 100 µM (inactive),> 100 µM (inactive),> 100 µM (inactive),–,–
C=C1C(=O)C23CC1CCC2C12CO[C@@H]4OCC(C)(CC[C@@H]1OC3=O)C42 (stereo partly specified),6.56 µM (inactive),12.1 µM (inactive),2.3 µM (inactive),3.52 µM (inactive),6.41 µM (inactive),5.38 µM (inactive),1.92 µM (inactive),1.9 µM (inactive),–
CCc1c(OC(C)=O)c2c(NC3OCC(OC(C)=O)C(OC(C)=O)C3OC(C)=O)nc(SC)nc2oc1=O (stereo unspecified),–,> 100 µM (inactive),> 100 µM (inactive),> 100 µM (inactive),> 100 µM (inactive),> 100 µM (inactive),> 100 µM (inactive),–,–
CCOC(=O)C1([Se]c2ccccc2)CCCC1=O (stereo unspecified),14.4 µM (inactive),66.5 µM (inactive),24 µM (inactive),16.6 µM (inactive),20.1 µM (inactive),36.6 µM (inactive),16.1 µM (inactive),3.83 µM (inactive),–
COC(=O)Nc1nc2cc(C(=O)c3cccs3)ccc2[nH]1 [NOCODAZOLE],0.0322 µM (active),0.07 µM (active),0.0322 µM (active),0.0344 µM (active),32.8 µM (inactive),< 0.0132 µM (active),0.0314 µM (active),0.0424 µM (active),–
O=C1CC(c2n[nH]c3ccccc23)C(=O)N1c1ccccc1 (stereo unspecified),> 100 µM (inactive),> 100 µM (inactive),> 100 µM (inactive),> 100 µM (inactive),> 100 µM (inactive),> 100 µM (inactive),> 100 µM (inactive),> 100 µM (inactive),> 100 µM (inactive)
